Measurements as given in patent US20210095293A1, “METHODS OF TREATING CANCERS WITH GPR132 INHIBITORS” (The Board of Regents of the University of Texas System, priority 2016, published 2021).

What was measured:
macrophage Gpr132 = biological target: T1, macrophage Gpr132 (Mus musculus, UniProt Q9Z282); assay: Gpr132 co-immunoprecipitation with LC-MS quantification of lactate; assay type: binding; details: lactate of <3 kDa EO771 CM, BMDM lysate
T1 construct: endogenous in cells; host or cells: bone marrow-derived macrophages (BMDMs) from WT C57BL/6 mice; Gpr132-KO BMDMs served as negative control
T1 sequence (Q9Z282 1-382): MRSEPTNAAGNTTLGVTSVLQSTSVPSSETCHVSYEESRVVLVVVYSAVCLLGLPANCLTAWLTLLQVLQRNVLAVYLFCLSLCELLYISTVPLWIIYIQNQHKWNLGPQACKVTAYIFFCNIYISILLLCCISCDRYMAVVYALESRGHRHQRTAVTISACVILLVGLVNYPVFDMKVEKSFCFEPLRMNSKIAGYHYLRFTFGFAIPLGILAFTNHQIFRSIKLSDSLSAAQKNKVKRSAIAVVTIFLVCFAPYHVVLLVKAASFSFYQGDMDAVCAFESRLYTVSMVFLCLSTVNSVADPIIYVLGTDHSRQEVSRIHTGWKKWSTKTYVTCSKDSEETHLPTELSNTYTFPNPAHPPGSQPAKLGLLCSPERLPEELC
Experimental: To determine whether lactate in the <3 kDa fraction of EO771 CM could bind to macrophage Gpr132, co-immunoprecipitation with anti-Gpr132 in WT and Gpr132-KO BMDMs was performed. Lactate pulled down by Gpr132 was quantified by liquid chromatography-mass spectrometry (LC-MS).
WT or Gpr132-KO BMDM lysate was incubated with concentrated <3 kDa EO771 CM for 4 hrs. This mixture of 1 ml volume was then incubated with 10 μl anti-Gpr132 antibody and 40 μl protein A/G plus-agarose beads overnight at 4° C. After the beads were washed, the IP eluent was collected for lactate quantification. Lactate was extracted and analyzed as reported (7). Briefly, 400 μl of cold MeOH was added to 100 μl of the IP eluent. Samples were mixed and then stored at −80° C. overnight. The next morning, samples were spun at 14,000 g for 10 min, and the supernatant was collected. After drying the supernatant via speedvac, the extract was dissolved in H2O (40 μl) and a portion of this sample (10 μl) analyzed by LC-MS. Lactate was measured using a TSQ Quantiva LC-MS instrument fitted with a Luna NH2 HPLC column ([…], 4.6 mm×100 mm, Phenomenex). The following LC solvents were used: buffer A, 95:5 H2O/ACN, 20 mM ammonium hydroxide, 20 mM ammonium acetate; buffer B, 100% ACN. […] Relative abundance of lactate was determined by measuring the lactate peak area.

macrophages = assay: M2 marker expression in macrophages (Western blot, RT-qPCR, flow cytometry); assay type: cell-based, mouse
Experimental: After blocking with 10% BSA for 10 min, cells were incubated with anti-CD206 (Rabbit polyclonal, Abcam) or anti-Gpr132 (Rabbit polyclonal, Sigma) antibodies (1:100) for 30 min at 4° C., washed with cold PBS, and then incubated with FITC-conjugated secondary antibodies (1:100) for 30 min at 4° C. After washing twice using cold PBS, cells were analyzed by flow cytometer (Becton Dickinson). RNA was isolated from cells or mouse tissues using Trizol (Invitrogen) following the manufacturer's instructions. RNA (200-500 ng) was first treated with RNase-free DNase I using the DNA-free kit (Ambion) to remove all genomic DNA, and then reverse-transcribed into cDNA using an ABI High Capacity cDNA RT Kit (Invitrogen). The cDNA was analyzed using real-time quantitative PCR (SYBR Green, Invitrogen) with an Applied Biosystems 7900 Sequence Detection System. Each reaction was performed in triplicate in a 384-well format. The expression of each gene was normalized by that of mouse ribosomal protein L19. Samples of 20 μg protein were applied to SDS polyacrylamide gels. After protein transfer, membranes were incubated with antibodies for […] (rabbit polyclonal, Santa Cruz Biotechnology), CD206, Gpr132, or β-actin (mouse monoclonal, Sigma) (1:1000) overnight at 4° C. Membranes were washed, and then incubated with HRP-conjugated secondary antibodies (1:1000) for 1 hr at room temperature before signal detection by chemiluminescence (Pierce). Densitometric quantification was performed by Image-Pro Plus 6.0 software (Media Cybernetics). PathScan Akt Signaling Antibody Array (Cell Signaling) was incubated with macrophage proteins and analyzed following kit instructions.

With `CC(O)C(=O)O` (stereo not drawn) [lactate] the “lactate enrichment in Gpr132 co-IP eluent, WT vs Gpr132-KO macrophages” value (macrophage Gpr132) was 7.1 fold, the “expression of M2 markers (CD206, GM-CSF, CCL17) in WT macrophages” value (macrophages; exogenous lactate 5 mM 24 hrs (Western) or 25 mM 6 hrs (RT-qPCR), WT) was “increased” and the “effects on M2 markers in Gpr132-KO macrophages” value (macrophages; exogenous lactate, Gpr132-KO) was “absent or largely attenuated”.
